Data reported in patent publication US11578092B2, “Compound for preventing or treating neurodegenerative disease and application thereof” (Shanghai Pharmaceuticals Holding Co., Ltd., priority 2018, dated 2023).

Assays:
[1] = system: APP/PS1 transgenic male mice (AD mice); experiment: Morris water maze test in AD mice; format: in vivo; conditions: 50 mg/kg daily intragastric, 90 days; for learning and memory abilities of AD mice after administration: Morris water maze
Protocol: Twenty 5-6-month-old APP/PS1 transgenic male mice (AD mice) were selected and divided into a model group and a polysaccharide administration group according to the random number table method. PL402 was administered daily by intragastric administration (50 mg/kg), and 10 non-transgenic mice were used in a negative control group (without administration). After 90 days of consecutive administration, Morris water maze behavior test was used to detect the effect of PL402 on the learning and cognitive functions of APP/PS1 mice.
In this experiment, a classic Morris water maze test procedure was used, which includes a place navigation test and a space exploration test. The duration of the experiment was 7 days in total, and the space exploration test was introduced at Days 4 and 7.
The selection of animals and the “Morris water maze experiment” was performed as described in Example 3, to detect the effect of PL404 on the animal learning and memory abilities.

[2] = system: mouse BV-2 cells; experiment: Expression of inflammatory factors in LPS-stimulated BV-2 cells (QPCR); format: cell-based; conditions: LPS 300 ng/ml, compound 10-300 μM, 24 hours
Protocol: Neuroinflammation in the brain of AD is one of the causes of cognitive decline. Microglia are key cells that mediate neuroinflammation. The inventors studied whether PL402 is effective in inhibiting neuroinflammation by detecting the expression of inflammatory factors on mouse BV-2 cells.
BV-2 cells culture and stimulation: BV-2 cells were cultured in DMEM, plated in a 24-well plate and cultured for 24 hours. Then PL402 (0, 10, 30, 100, or 300 μM) and LPS (300 ng/ml) were added, and then incubated for 24 hours. RNA was extracted with Trizol, and the expression of related inflammatory factors was detected by QPCR.

[3] = system: neuroblastoma cells SK—N—SH cells; experiment: Total Aβ level in supernatant of SK-N-SH cells (ELISA); format: cell-based; conditions: 24 hours
Protocol: Aβ is the main pathogenic protein of AD. The inventors investigated whether PL402 has an effect on inhibiting Aβ production by detecting the level of Aβ in neuroblastoma cells SK—N—SH cells (which can secrete Aβ).
Culture of SK—N—SH and detection of Aβ: SK—N—SH cells were cultured in DMEM, plated in a 24-well plate and cultured for 24 hours. PL402 (0, 10, 30, 100, or 300 μM) was added, and then incubated for 24 hours. The supernatant was collected and the total Aβ protein level was detected by ELISA.

[4] = system: human neural progenitor cell (differentiated by humanized iPSC); experiment: EdU incorporation, proliferation of human neural progenitor cells; format: cell-based; conditions: dosage 0, 1, 3, 10, 30 or 100 μM, vs untreated control
Protocol: The inventors investigated whether PL404 has the effect on promoting proliferation by detecting the EdU incorporation of a human neural progenitor cell (differentiated by humanized iPSC). The dosage of PL404 was 0, 1, 3, 10, 30, or 100 μM.
The method similar to that in Example 7 was used, except that compound PL404 was replaced by PL405, and by detecting the EdU incorporation of human neural progenitor cells, whether PL405 has the effect on promoting proliferation was investigated.

| Compound | learning and memory abilities of AD mice after administration [1] | escape latency (latency to reach the platform) compared with the model group ([1]; place navigation test, 50 mg/kg) | expression of inflammatory factor IL-1β [2] | expression of inflammatory factor IL-6 [2] | production of Aβ (total Aβ protein level) ([3]; compound 10-300 μM, ELISA of supernatant) | concentration at which the inhibition of Aβ production is most desirable ([3]; tested 0, 10, 30, 100, 300 μM) [µM] | increase of human neural progenitor cell proliferation level compared with the control group [4] |
| --- | --- | --- | --- | --- | --- | --- | --- |
| COc1cc(/C=C/C(=O)O[C@@H]2OC(C)[C@H](O[C@@H]3OC(C)[C@H](O)C(O)C3O)C(O)C2O)ccc1O (stereo partly drawn) [PL402] | significantly improved | statistically significant decrease | significantly inhibit | significantly inhibit | significantly inhibit | 100 | – |
| COc1cc(/C=C/C(=O)OC2C(C)OC(OC3C(C)OC(O)C4OC(C)(C)OC34)C(O)C2O)ccc1O (stereo not drawn) [PL404] | significantly improved | – | – | – | – | – | about 30% |
| COc1cc(/C=C/C(=O)OC2C(C)OC(OC3C(C)OC(O)C(O)C3O)C(O)C2O)ccc1O (stereo not drawn) [PL405] | – | – | – | – | – | – | about 60% |
